Laboratory results as given in ChEMBL document CHEMBL1152400, “Tetrahydrocarbazole amides with potent activity against human papillomaviruses” (Bioorg Med Chem Lett, 2009).
pIC50: −log10 of the molar value.

How the values were obtained:
[1] = test system: Human papillomavirus type 16; experiment: Antiviral activity against Human papillomavirus 16 infected in human W12-20850 cells by hybrid capture method; type: functional, organism-based; details: Human papillomavirus 16, W12-20850
[2] = Cytotoxicity against HFF cells; type: cell-based; details: human
[3] = Bioavailability in rat; type: ADME, organism-based; details: in vivo
Cytochrome P450 2D6 = Cytochrome P450 2D6 (Homo sapiens, UniProt P10635); experiment: Inhibition of CYP2D6; type: ADME
[4] = molecular target: Voltage-gated inwardly rectifying potassium channel KCNH2 (Homo sapiens, UniProt Q12809)
[5] = Clearance in rat at 2 mg/kg, iv; type: ADME, organism-based; set-up: dose 2 mg/kg, route intravenous; details: in vivo
[6] = Clearance in dog at 2 mg/kg, iv; type: ADME, organism-based, Canis lupus familiaris; set-up: dose 2 mg/kg, route intravenous; details: in vivo
[7] = Clearance in monkey at 2 mg/kg, iv; type: ADME, organism-based, Macaca mulatta; set-up: dose 2 mg/kg, route intravenous; details: rhesus monkey, in vivo
[8] = Volume of distribution at steady state in rat at 2 mg/kg, iv; type: ADME, organism-based; set-up: dose 2 mg/kg, route intravenous; details: in vivo, read-out: Vdss
[9] = Volume of distribution at steady state in dog at 2 mg/kg, iv; type: ADME, organism-based, Canis lupus familiaris; set-up: dose 2 mg/kg, route intravenous; details: in vivo, read-out: Vdss
[10] = Volume of distribution at steady state in monkey at 2 mg/kg, iv; type: ADME, organism-based, Macaca mulatta; set-up: dose 2 mg/kg, route intravenous; details: rhesus monkey, in vivo, read-out: Vdss
[11] = Half life in rat at 10 mg/kg; type: ADME, organism-based; set-up: dose 10 mg/kg; details: in vivo
[12] = Half life in dog at 5 mg/kg; type: ADME, organism-based, Canis lupus familiaris; set-up: dose 5 mg/kg; details: in vivo
[13] = Half life in monkey at 5 mg/kg; type: ADME, organism-based, Macaca mulatta; set-up: dose 5 mg/kg; details: rhesus monkey, in vivo
[14] = Oral bioavailability in rat at 10 mg/kg; type: ADME, organism-based; details: in vivo
[15] = Oral bioavailability in dog at 5 mg/kg; type: ADME, organism-based, Canis lupus familiaris; details: in vivo
[16] = Oral bioavailability in monkey at 5 mg/kg; type: ADME, organism-based, Macaca mulatta; details: rhesus monkey, in vivo

Sequence of Cytochrome P450 2D6 (P10635 whole entry): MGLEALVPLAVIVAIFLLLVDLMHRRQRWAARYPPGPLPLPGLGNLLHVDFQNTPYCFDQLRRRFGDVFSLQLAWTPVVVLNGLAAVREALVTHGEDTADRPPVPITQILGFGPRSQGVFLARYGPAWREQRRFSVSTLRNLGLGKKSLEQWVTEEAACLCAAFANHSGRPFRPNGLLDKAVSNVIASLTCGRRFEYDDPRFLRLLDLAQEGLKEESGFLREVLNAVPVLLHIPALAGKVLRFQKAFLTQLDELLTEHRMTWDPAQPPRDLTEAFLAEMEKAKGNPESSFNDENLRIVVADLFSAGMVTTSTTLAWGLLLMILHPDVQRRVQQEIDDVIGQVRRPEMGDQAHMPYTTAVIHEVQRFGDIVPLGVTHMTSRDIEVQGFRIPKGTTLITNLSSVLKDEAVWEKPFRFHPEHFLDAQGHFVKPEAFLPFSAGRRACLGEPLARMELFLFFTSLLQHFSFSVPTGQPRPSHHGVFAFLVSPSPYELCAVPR
Sequence of Voltage-gated inwardly rectifying potassium channel KCNH2 (Q12809 whole entry): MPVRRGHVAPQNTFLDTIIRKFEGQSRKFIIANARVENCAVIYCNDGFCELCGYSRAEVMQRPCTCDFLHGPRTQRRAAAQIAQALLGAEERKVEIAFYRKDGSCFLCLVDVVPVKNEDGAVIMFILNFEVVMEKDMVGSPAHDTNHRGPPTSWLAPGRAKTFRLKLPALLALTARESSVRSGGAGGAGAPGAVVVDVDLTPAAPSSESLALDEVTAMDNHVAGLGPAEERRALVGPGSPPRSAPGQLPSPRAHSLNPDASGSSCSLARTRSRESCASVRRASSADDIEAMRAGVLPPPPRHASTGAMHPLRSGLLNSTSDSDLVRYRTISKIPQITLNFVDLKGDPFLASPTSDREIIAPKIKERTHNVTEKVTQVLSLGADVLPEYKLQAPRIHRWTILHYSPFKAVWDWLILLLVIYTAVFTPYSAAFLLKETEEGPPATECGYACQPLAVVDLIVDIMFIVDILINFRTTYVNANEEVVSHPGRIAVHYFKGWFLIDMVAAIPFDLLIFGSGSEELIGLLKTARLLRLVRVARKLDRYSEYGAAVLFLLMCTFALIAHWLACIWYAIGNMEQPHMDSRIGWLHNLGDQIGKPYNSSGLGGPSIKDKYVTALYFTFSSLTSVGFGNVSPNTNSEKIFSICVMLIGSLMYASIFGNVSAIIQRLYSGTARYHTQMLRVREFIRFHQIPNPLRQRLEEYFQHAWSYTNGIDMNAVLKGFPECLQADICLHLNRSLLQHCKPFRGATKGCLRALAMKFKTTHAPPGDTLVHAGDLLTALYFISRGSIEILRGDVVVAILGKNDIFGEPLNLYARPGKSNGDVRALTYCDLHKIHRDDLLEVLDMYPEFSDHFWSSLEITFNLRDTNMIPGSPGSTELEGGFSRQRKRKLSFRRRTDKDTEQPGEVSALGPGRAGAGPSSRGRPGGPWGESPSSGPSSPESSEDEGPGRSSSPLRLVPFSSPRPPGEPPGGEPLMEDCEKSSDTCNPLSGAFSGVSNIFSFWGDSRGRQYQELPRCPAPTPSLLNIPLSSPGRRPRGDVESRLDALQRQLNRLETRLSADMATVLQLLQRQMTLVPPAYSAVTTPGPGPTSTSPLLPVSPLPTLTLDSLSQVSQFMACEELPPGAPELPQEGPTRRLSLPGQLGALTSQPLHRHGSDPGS

Compound	pIC50 [1]	CC50 [2]	further results
O=C(NC1CCCc2c1[nH]c1ccc(Br)cc21)c1ccncc1 (racemic)	6.70	100 µM	–
Brc1ccc2[nH]c3c(c2c1)CCCC3Nc1ccccc1 (stereo not given)	8.00	50.8 µM	bioavailability [3]: < 5%
O=C(NC1CCCc2c1[nH]c1ccc(Br)cc21)C1CCCCC1 (stereo not given)	6.40	50 µM	–
O=C(N[C@H]1CCCc2c1[nH]c1ccc(Cl)cc21)c1ccccn1	5.05	61 µM	–
COc1ccccc1C(=O)NC1CCCc2c1[nH]c1ccc(Br)cc21 (racemic)	4.68	100 µM	–
O=C(N[C@@H]1CCCc2c1[nH]c1ccc(Br)cc21)c1ccccc1	8.10	39 µM	–
O=C(NC1CCCc2c1[nH]c1ccc(Br)cc21)c1ccccc1 (stereo not given)	7.52	> 20 µM	–
C[C@@H](N[C@@H]1CCCc2c1[nH]c1ccc(Br)cc21)c1ccccc1	–	–	pIC50 (Cytochrome P450 2D6): 6.80
Cc1ccc(C(=O)NC2CCCc3c2[nH]c2ccc(Br)cc32)cc1 (racemic)	8.00	87 µM	–
O=C(N[C@H]1CCCc2c1[nH]c1ccc(Cl)cc21)c1ccccc1F	5.68	36 µM	–
O=C(N[C@@H]1CCCc2c1[nH]c1ccc(Cl)cc21)c1ccccc1F	8.10	24 µM	pIC50 (Cytochrome P450 2D6): < 4.70; pIC50 [4]: < 4.70
O=C(NC1CCCc2c1[nH]c1ccc(Br)cc21)c1ccccn1 (racemic)	8.30	72 µM	–
O=C(NC1CCCc2c1[nH]c1ccc(Br)cc21)c1cccc(F)c1 (racemic)	7.74	65 µM	–
O=C(NC1CCCc2c1[nH]c1ccc(Br)cc21)c1cccnc1 (racemic)	6.72	100 µM	–
O=C(NC1CCCc2c1[nH]c1ccc(Br)cc21)c1ccccc1F (racemic)	8.10	49 µM	–
O=C(N[C@@H]1CCCc2c1[nH]c1ccc(Cl)cc21)c1ccccn1	8.30	16 µM	clearance [5]: 13.1 mL/min/kg; clearance [6]: 5 mL/min/kg; clearance [7]: 1.1 mL/min/kg; Vd [8]: 1.6 L/kg; Vd [9]: 1.7 L/kg; Vd [10]: 0.13 L/kg; half-life [11]: 4.1 h; half-life [12]: 9.5 h; half-life [13]: 3.6 h; bioavailability [14]: 56%; bioavailability [15]: 35%; bioavailability [16]: 56%
O=C(Cc1ccccc1)NC1CCCc2c1[nH]c1ccc(Br)cc21 (stereo not given)	6.24	> 50 µM	–

Compound	pIC50 [1]	CC50 [2]	further results
O=C(/C=C/c1ccccc1)NC1CCCc2c1[nH]c1ccc(Br)cc21 (stereo not given)	6.49	> 40 µM	–
COc1ccc(C(=O)NC2CCCc3c2[nH]c2ccc(Br)cc32)cc1 (racemic)	7.77	88 µM	–
Cc1cccc(C(=O)NC2CCCc3c2[nH]c2ccc(Br)cc32)c1 (racemic)	7.62	41 µM	–
Cc1ccccc1C(=O)NC1CCCc2c1[nH]c1ccc(Br)cc21 (stereo not given)	6.30	40 µM	–
O=C(NC1CCCc2c1[nH]c1ccc(Br)cc21)c1ccc(F)cc1 (racemic)	7.36	47 µM	–
COc1cccc(C(=O)NC2CCCc3c2[nH]c2ccc(Br)cc32)c1 (racemic)	7.68	26 µM	–
O=C(N[C@@H]1CCCc2c1[nH]c1ccc(Cl)cc21)c1ccccc1	7.70	26 µM	–
O=C(N[C@H]1CCCc2c1[nH]c1ccc(Br)cc21)c1ccccc1	5.24	52 µM	–
O=C(CCc1ccccc1)NC1CCCc2c1[nH]c1ccc(Br)cc21 (stereo not given)	5.92	> 50 µM	–
O=C(N[C@H]1CCCc2c1[nH]c1ccc(Cl)cc21)c1ccccc1	4.95	55 µM	–
O=C(NC1CCCc2c1[nH]c1ccc(Br)cc21)OCc1ccccc1 (stereo not given)	7.35	> 20 µM	–
CC(=O)NC1CCCc2c1[nH]c1ccc(Br)cc21 (stereo not given)	4.89	> 50 µM	–
CS(=O)(=O)NC1CCCc2c1[nH]c1ccc(Br)cc21 (stereo not given)	5.65	> 50 µM	–
Cc1ccc(S(=O)(=O)NC2CCCc3c2[nH]c2ccc(Br)cc32)cc1 (stereo not given)	7.62	> 20 µM	–
Brc1ccc2[nH]c3c(c2c1)CCCC3Nc1ncccn1 (stereo not given)	7.05	89.5 µM	–
Brc1ccc2[nH]c3c(c2c1)CCCC3Nc1ccccn1 (stereo not given)	7.40	20.7 µM	–
